Measurements: patent US9518018B2, “3-alkoxy, thioalkyl and amino-4-amino-6-(substituted)picolinates and their use as herbicides” (Dow AgroSciences LLC, priority 2011, dated 2016)

Legend:
[1] = tested on: EPHHL: wild poinsettia (Euphorbia heterophylla); assay: Post-Emergent Test I herbicidal activity; type: in vivo; details: post-emergence, 336 h, read-out: Visual Growth Reduction (%)-14 Days after Application EPHHL; for pest or weed control at 140 g/ha: Table 3, 140 g ai/ha; for pest or weed control at 280 g/ha: Table 3, 280 g ai/ha; for pest or weed control at 70 g/ha: Table 3, 70 g ai/ha
In short: (§1)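 Visual injury ratings (0 = none, 100 = complete kill) taken 14 d after treatment underlie these values, with GR20, GR50 and GR80 obtained by probit analysis. Plants were treated post-emergence at the first or second true-leaf stage by overhead spray at 187 L/ha.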

ZEAMX: corn (Zea mays) = assay: Post-Emergent Test I herbicidal activity; type: in vivo; details: Zea mays, post-emergence, 336 h, read-out: Visual Growth Reduction (%)-14 Days after Application ZEAMX; for pest or weed control at 140 g/ha: Table 3, 140 g ai/ha; for pest or weed control at 280 g/ha: Table 3, 280 g ai/ha; for pest or weed control at 70 g/ha: Table 3, 70 g ai/ha
In short: as §1

[2] = tested on: ABUTH: velvetleaf (Abutilon theophrasti); assay: Post-Emergent Test I herbicidal activity; type: in vivo; details: Abutilon theophrasti, post-emergence, 336 h, read-out: Visual Growth Reduction (%)-14 Days after Application ABUTH; for pest or weed control at 140 g/ha: Table 3, 140 g ai/ha; for pest or weed control at 280 g/ha: Table 3, 280 g ai/ha; for pest or weed control at 70 g/ha: Table 3, 70 g ai/ha
In short: as §1

[3] = tested on: CHEAL: lambsquarters (Chenopodium album); assay: Post-Emergent Test I herbicidal activity; type: in vivo; details: Chenopodium album, post-emergence, 336 h, read-out: Visual Growth Reduction (%)-14 Days after Application CHEAL; for pest or weed control at 140 g/ha: Table 3, 140 g ai/ha; for pest or weed control at 280 g/ha: Table 3, 280 g ai/ha; for pest or weed control at 70 g/ha: Table 3, 70 g ai/ha
In short: as §1

[4] = tested on: ORYSA: rice (Oryza sativa); assay: Post-Emergent Test I herbicidal activity; type: in vivo; details: post-emergence, 336 h, read-out: Visual Growth Reduction (%)-14 Days after Application ORYSA; for pest or weed control at 140 g/ha: Table 3, 140 g ai/ha; for pest or weed control at 280 g/ha: Table 3, 280 g ai/ha; for pest or weed control at 70 g/ha: Table 3, 70 g ai/ha
In short: (§2)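 Greenhouse plants at first-second true leaf stage sprayed post-emergence by track sprayer at 187 L/ha with compound in acetone/DMSO/water/isopropanol carrier with crop oil concentrate and Triton X-155, top rate plus ½× to 1/16× serial rates. Injury scored visually at 14 d, 0-100% versus untreated plants; GR20, GR50, GR80 from probit analysis.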

[5] = tested on: ECHCG: barnyardgrass (Echinochloa crus-galli); assay: Post-Emergent Test I herbicidal activity; type: in vivo; details: post-emergence, 336 h, read-out: Visual Growth Reduction (%)-14 Days after Application ECHCG; for pest or weed control at 140 g/ha: Table 3, 140 g ai/ha; for pest or weed control at 280 g/ha: Table 3, 280 g ai/ha; for pest or weed control at 70 g/ha: Table 3, 70 g ai/ha
In short: as §2

[6] = tested on: CYPES: yellow nutsedge (Cyperus esculentus); assay: Post-Emergent Test I herbicidal activity; type: in vivo; details: post-emergence, 336 h, read-out: Visual Growth Reduction (%)-14 Days after Application CYPES; for pest or weed control at 140 g/ha: Table 3, 140 g ai/ha; for pest or weed control at 280 g/ha: Table 3, 280 g ai/ha; for pest or weed control at 70 g/ha: Table 3, 70 g ai/ha
In short: as §1

melting point [°C]	SMILES	pest or weed control at 140 g/ha [1] [%]	pest or weed control at 140 g/ha (ZEAMX: corn (Zea mays)) [%]	pest or weed control at 140 g/ha [2] [%]	pest or weed control at 140 g/ha [3] [%]	pest or weed control at 140 g/ha [4] [%]	pest or weed control at 140 g/ha [5] [%]	pest or weed control at 140 g/ha [6] [%]	other results
160 to 162	COc1c(C(=O)O)nc(-c2ccc(C(F)(F)F)nc2)c(F)c1N [Compound 63]	100	80	90	100	50	95	100	
93 to 94	CCOC(=O)c1nc(-c2ccc(Cl)c(OC)c2F)cc(N)c1SC [Compound 88, Ethyl 4-amino-6-(4-chloro-2-fluoro-3-methoxyphenyl)-3-(methylthio)picolinate]	100	80	100	100	0	100	60	
132 to 134	COc1c(C(=O)O)nc(-c2cc(F)c(I)cc2F)c(F)c1N [Compound 60]								pest or weed control at 70 g/ha [1]: 100%; pest or weed control at 70 g/ha (ZEAMX: corn (Zea mays)): 75%; pest or weed control at 70 g/ha [2]: 60%; pest or weed control at 70 g/ha [3]: 90%; pest or weed control at 70 g/ha [4]: 15%; pest or weed control at 70 g/ha [5]: 95%; pest or weed control at 70 g/ha [6]: 50%
148.5 to 150.5	CCc1nc(C(=O)O)c(OC)c(N)c1F [Compound 58]								pest or weed control at 280 g/ha [1]: 65%; pest or weed control at 280 g/ha (ZEAMX: corn (Zea mays)): 10%; pest or weed control at 280 g/ha [2]: 60%; pest or weed control at 280 g/ha [3]: 80%; pest or weed control at 280 g/ha [4]: 0%; pest or weed control at 280 g/ha [5]: 0%; pest or weed control at 280 g/ha [6]: 0%
153.5 to 155	COc1c(C(=O)O)nc(-c2cc(F)c(Cl)cc2F)c(F)c1N [Compound 57]								pest or weed control at 70 g/ha [1]: 100%; pest or weed control at 70 g/ha (ZEAMX: corn (Zea mays)): 75%; pest or weed control at 70 g/ha [2]: 85%; pest or weed control at 70 g/ha [3]: 100%; pest or weed control at 70 g/ha [4]: 0%; pest or weed control at 70 g/ha [5]: 90%; pest or weed control at 70 g/ha [6]: 70%
176 to 178	CSc1c(C(=O)O)nc(Cl)c(F)c1N [Compound 73]	50	0	10	10	0	0	0	
153 to 154	COC(=O)c1nc(-c2ccc(Cl)cc2)cc(N(C)C)c1N [Compound 87, Methyl 3-amino-6-(4-chlorophenyl)-4-(dimethylamino)picolinate]	100	0	90	90	0	40	90	
113 to 117	COC(=O)c1nc(-c2ccc(Cl)c(OC)c2F)c(F)c(N)c1SC [Compound 94, Methyl 4-amino-6-(4-chloro-2-fluoro-3-methoxyphenyl)-5-fluoro-3-(methylthio)picolinate]	65	0	60	85	0	0	0	
143 to 145	COc1c(C(=O)O)nc(-c2ccc(I)cc2F)c(F)c1N [Compound 62]	100	75	15	100	8	100	50	
178 to 200	CNc1cc(-c2ccc(Cl)cc2)nc(C(=O)OC)c1N [Compound 86, Methyl 3-amino-6-(4-chlorophenyl)-4-(methylamino)picolinate]								pest or weed control at 280 g/ha [1]: 50%; pest or weed control at 280 g/ha (ZEAMX: corn (Zea mays)): 0%; pest or weed control at 280 g/ha [2]: 40%; pest or weed control at 280 g/ha [3]: 95%; pest or weed control at 280 g/ha [4]: 0%; pest or weed control at 280 g/ha [6]: 0%

Further lines, the molecule ahead of its results:

SMILES	melting point [°C]	pest or weed control at 140 g/ha [1] [%]	pest or weed control at 140 g/ha (ZEAMX: corn (Zea mays)) [%]	pest or weed control at 140 g/ha [2] [%]	pest or weed control at 140 g/ha [3] [%]	pest or weed control at 140 g/ha [4] [%]	pest or weed control at 140 g/ha [5] [%]	pest or weed control at 140 g/ha [6] [%]	other results
CCc1nc(C(=O)OC)c(OC)c(N)c1F [Compound 13, methyl 4-amino-6-ethyl-5-fluoro-3-methoxypicolinate]	110.5 to 113								pest or weed control at 280 g/ha [1]: 70%; pest or weed control at 280 g/ha (ZEAMX: corn (Zea mays)): 0%; pest or weed control at 280 g/ha [2]: 0%; pest or weed control at 280 g/ha [3]: 90%; pest or weed control at 280 g/ha [4]: 0%; pest or weed control at 280 g/ha [5]: 0%; pest or weed control at 280 g/ha [6]: 0%
COC(=O)c1nc(-c2ccc3c(c2)OCO3)c(F)c(N)c1OC [Compound 37]	110 to 112	100	75	55	100	0	100	100	
COc1c(C(=O)O)nc(-c2ccc(I)c(F)c2F)c(F)c1N [Compound 28]	145 to 147								pest or weed control at 70 g/ha [1]: 100%; pest or weed control at 70 g/ha (ZEAMX: corn (Zea mays)): 70%; pest or weed control at 70 g/ha [2]: 70%; pest or weed control at 70 g/ha [3]: 100%; pest or weed control at 70 g/ha [4]: 5%; pest or weed control at 70 g/ha [5]: 80%; pest or weed control at 70 g/ha [6]: 40%
COc1c(C(=O)O)nc(-c2ccc(Cl)c(F)c2F)c(F)c1N [Compound 48]	151	100	80	90	100	0	90	100	
COC(=O)c1nc(-c2cc(F)c(Cl)cc2F)c(F)c(N)c1OC [Compound 39]	120 to 123								pest or weed control at 70 g/ha [1]: 100%; pest or weed control at 70 g/ha (ZEAMX: corn (Zea mays)): 75%; pest or weed control at 70 g/ha [2]: 80%; pest or weed control at 70 g/ha [3]: 100%; pest or weed control at 70 g/ha [4]: 0%; pest or weed control at 70 g/ha [5]: 80%; pest or weed control at 70 g/ha [6]: 100%
COc1c(C(=O)O)nc(-c2ccc(C(F)(F)F)c(F)c2F)c(F)c1N [Compound 56]	133 to 135	100	75	80	90	10	100	50	
COC(=O)c1nc(-c2cc(F)c(I)cc2F)c(F)c(N)c1OC [Compound 25]	127 to 129	100	70	70	90	0	85	100	
COC(=O)c1nc(-c2cc(F)c(Br)cc2F)c(F)c(N)c1OC [Compound 20]	116 to 118								pest or weed control at 70 g/ha [1]: 100%; pest or weed control at 70 g/ha (ZEAMX: corn (Zea mays)): 80%; pest or weed control at 70 g/ha [2]: 85%; pest or weed control at 70 g/ha [3]: 100%; pest or weed control at 70 g/ha [4]: 0%; pest or weed control at 70 g/ha [5]: 80%; pest or weed control at 70 g/ha [6]: 50%
COc1c(C(=O)O)nc(-c2ccc(F)cc2)c(F)c1N [Compound 52]	149 to 151	100	50		100	0	60	100	
